Assay [1] relates to 24-hydroxylase (24Ohase) gene promoter in ROS 17/2.8 (bone) cells. As to the kind of experiment: In vitro transcription assay (24-hydroxylase gene promoter, luciferase reporter). Format: cell-based. The following applies: ROS 17/2.8 cells, 24-hydroxylase promoter-luciferase; FIG. 3; read-out: EC50, transcriptional activity in bone cells. The method, then:
Transcription activity was measured in ROS 17/2.8 (bone) cells that were stably transfected with a 24-hydroxylase (24Ohase) gene promoter upstream of a luciferase reporter gene (Arbour et al., 1998). Cells were given a range of doses. Sixteen hours after dosing the cells were harvested and luciferase activities were measured using a luminometer.
RLU=relative luciferase units.

Assay [2] concerns bone calcium mobilization. Put plainly: Bone calcium mobilization (serum calcium) in vitamin D-deficient rats. The class given is in vivo, rat. Particulars: FIG. 4; for mobilization of bone calcium (serum calcium): ip, 4 consecutive days, rats on 0.02% Ca diet. As to the method: (§1) Male, weanling Sprague-Dawley rats were placed on Diet 11 (0.47% Ca) diet+AEK oil for one week followed by Diet 11 (0.02% Ca)+AEK oil for 3 weeks. The rats were then switched to a diet containing 0.47% Ca for one week followed by two weeks on a diet containing 0.02% Ca. Dose administration began during the last week on 0.02% calcium diet. Four consecutive ip doses were given approximately 24 hours apart. Twenty-four hours after the last dose, blood was collected from the severed neck and the concentration of serum calcium determined as a measure of bone calcium mobilization. The first 10 cm of the intestine was also collected for intestinal calcium transport analysis using the everted gut sac method.

Assay [3] addresses T1, full-length recombinant rat vitamin D receptor (Rattus norvegicus, UniProt P13053).
T1 construct: Full-length recombinant rat receptor was expressed in E. coli; histidine tag (C); made in house; host or cells: E. coli BL21 (DE3) Codon Plus RIL
T1 sequence (P13053 1-423): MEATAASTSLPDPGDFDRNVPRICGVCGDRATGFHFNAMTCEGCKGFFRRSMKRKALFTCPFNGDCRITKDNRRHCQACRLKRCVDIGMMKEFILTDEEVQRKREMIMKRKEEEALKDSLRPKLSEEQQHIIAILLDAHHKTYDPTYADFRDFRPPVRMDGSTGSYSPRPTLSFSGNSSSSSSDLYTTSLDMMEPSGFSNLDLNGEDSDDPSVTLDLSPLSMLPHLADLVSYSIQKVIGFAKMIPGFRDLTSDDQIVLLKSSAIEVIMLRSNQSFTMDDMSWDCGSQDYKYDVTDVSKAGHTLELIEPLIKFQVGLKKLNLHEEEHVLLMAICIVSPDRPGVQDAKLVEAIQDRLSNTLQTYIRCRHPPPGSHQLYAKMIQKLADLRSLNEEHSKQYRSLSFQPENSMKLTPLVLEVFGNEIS
Put plainly: Vitamin D receptor competitive binding with [3H]-1,25(OH)2D3. Particulars: FIG. 1. The method, then: Full-length recombinant rat receptor was expressed in E. coli BL21 (DE3) Codon Plus RIL cells and purified to homogeneity using two different column chromatography systems. The first system was a nickel affinity resin that utilizes the C-terminal histidine tag on this protein. The protein that was eluted from this resin was further purified using ion exchange chromatography (S-Sepharose Fast Flow). Aliquots of the purified protein were quick frozen in liquid nitrogen and stored at −80° C. until use. For use in binding assays, the protein was diluted in TEDK50 (50 mM Tris, 1.5 mM EDTA, pH7.4, 5 mM DTT, 150 mM KCl) with 0.1% Chaps detergent. The receptor protein and ligand concentration were optimized such that no more than 20% of the added radiolabeled ligand was bound to the receptor.
Radiolabeled and unlabeled ligands were added to 100 mcl of the diluted protein at a final ethanol concentration of ≦10%, mixed and incubated overnight on ice to reach binding equilibrium. The following day, 100 mcl of hydroxylapatite slurry (50%) was added to each tube and mixed at 10-minute intervals for 30 minutes. The hydroxylapaptite was collected by centrifugation and then washed three times with Tris-EDTA buffer (50 mM Tris, 1.5 mM EDTA, pH 7.4) containing 0.5% Titron X-100. […] Total binding was determined from the tubes containing only radiolabeled ligand.

The subject of a further assay is HL-60 cells. Put plainly: HL-60 cell differentiation (nitro blue tetrazolium reduction). Particulars: for EC50: HL-60 cells into monocytes, FIG. 2. Format: cell-based, human. As to the method: The study drugs were dissolved in ethanol and the concentrations determined using UV spectrophotometry. Serial dilutions were prepared so that a range of drug concentrations could be tested without changing the final concentration of ethanol (≦0.2%) present in the cell cultures.
Human promyelocytic leukemia (HL60) cells were grown in RPMI-1640 medium containing 10% fetal bovine serum. The cells were incubated at 37° C. in the presence of 5% CO2.
HL60 cells were plated at 1.2×10^5 cells/ml. Eighteen hours after plating, cells in duplicate were treated with drug. Four days later, the cells were harvested and a nitro blue tetrazolium reduction assay was performed (Collins et al., 1979; J. Exp. Med. 149:969-974). The percentage of differentiated cells was determined by counting a total of 200 cells and recording the number that contained intracellular black-blue formazan deposits. Verification of differentiation to monocytic cells was determined by measuring phagocytic activity (data not shown).

In assay [4] the test system is intestinal calcium transport. Put plainly: Intestinal calcium transport (everted gut sac method) in vitamin D-deficient rats. The class given is in vivo, rat. The following applies: FIG. 5; for intestinal calcium transport: 260 pmol/day, ip, 4 consecutive days, everted gut sac. As to the method: as §1

Consider `C=C1[C@H](O)CC(=C/C=C2\CCC[C@]3(C)[C@@H](C(=C)CCCC(C)(C)O)CC[C@@H]23)C[C@H]1O` [Vit III 20-21, 2-methylene-20(21)-dehydro-19-nor-1α,25-dihydroxyvitamin D3], for which the results for the EC50 (in assay [1]; in the assay on HL-60 cells (Homo sapiens)) were 2 nM and 0.7 nM, respectively. Moreover, the “mobilization of bone calcium (serum calcium)” value in assay [2] (260 pmol/day) is on record as “did not result in mobilization of bone calcium”; in assay [2] (2340 pmol/day) it was “substantial effect”. Moreover, in assay [2] (in words), the “bone calcium mobilization activity compared to 1,25(OH)2D3” value is reported as “less bone calcium mobilization activity”. Further, the Ki in assay [3] (full-length recombinant rat VDR, read-out: Ki, competition with [3H]-1,25(OH)2D3 for binding to the vitamin D receptor) was determined as 0.1 nM. In assay [3] (in words), the “VDR binding affinity compared to 1,25(OH)2D3” value is “same affinity”. Also, the “potency on HL-60 cell differentiation relative to 1,25(OH)2D3” value in the assay on HL-60 cells (compared to 1,25(OH)2D3) is on record as 3 to 4 times. The intestinal calcium transport entry in assay [4] is recorded as “promotes intestinal calcium transport”. Also, the “intestinal calcium transport activity compared to 1,25(OH)2D3” value in assay [4] (in words) was “about the same activity”.

With `C=C1/C(=C\C=C2/CCC[C@]3(C)[C@@H]([C@H](C)CCCC(C)(C)O)CC[C@@H]23)C[C@@H](O)C[C@@H]1O` [1,25(OH)2D3, 1α,25-dihydroxyvitamin D3, reference compound], the half-maximal effective concentration (EC50) stood at 0.3 nM in assay [1] and 2 nM with HL-60 cells. Besides, in assay [2] (260 pmol/day), the “mobilization of bone calcium (serum calcium)” value is “increased serum calcium levels”. Moreover, the intestinal calcium transport result in assay [4] is reported as “significant increase”.

The record behind these values is patent US7888339B2, “2-methylene-20(21)-dehydro-19-nor-vitamin D analogs” (Wisconsin Alumni Research Foundation, priority 2008, dated 2011).
